{
  "source": "patent US6150393A",
  "about": "(priority 1999, dated 2000)",
  "key": {"[1]": {"system": "human mutated 5HT2A receptor, AP-3", "experiment": "Receptor-mediated inositol phosphate (IP3) accumulation, AP-3", "assay_type": "cell-based", "description": "On day one, 1×10^7 293 cells per 150 mm plate were plated out. On day two, two reaction tubes were prepared (the proportions to follow for each tube are per plate): tube A was prepared by mixing 20 μg DNA (e.g., pCMV vector; pCMV vector AP-1 cDNA, etc.) in 1.2 ml serum free DMEM (Irvine Scientific, Irvine, Calif.); tube B was prepared by mixing 120 μl lipofectamine (Gibco BRL) in 1.2 ml serum free DMEM. Tubes A and B were then admixed by inversions (several times), followed by incubation at room temperature for 30-45 min. The admixture is referred to as the \"transfection mixture\". Plated 293 cells were washed with 1×PBS, followed by addition of 10 ml serum free DMEM. 2.4 ml of the transfection mixture was then added to the cells, followed by incubation for 4 hrs at 37° C./5% CO2. On day 3, cells were trypsinized and counted, followed by plating of 1×10^6 cells/well (poly D-lysine treated 12-well plates). Cells were permitted to adhere to the wells, followed by one wash with 1×PBS. Thereafter, 0.5 μCi ^3 H-inositol in 1 ml inositol-free DMEM was added per well. Protocol B.\nOn day 4, the cells were washed with 0.5 ml PBS and then 0.45 ml of assay medium was added containing inositol-free/serum free media, 10 μM pargyline, 10 mM lithium chloride, or 0.4 ml of assay medium and 50 ul of 10× ketanserin (ket) to a final concentration of 10 μM. The cells were then incubated for 30 minutes at 37° C. Then the cells were washed with 0.5 ml PBS and 200 ul of fresh/ice cold stop solution (1M KOH; 18 mM Na-borate; 3.8 mM EDTA) was added/well. The solution was kept on ice for 5-10 minutes or until the cells were lysed and then neutralized by 200 μl of fresh/ice cold neutralization sol. (7.5% HCL). The lysate was then transferred into 1.5 ml microcentrifuge tubes and 1 ml of chloroform/methanol (1:2) was added/tube. The solution was vortexed for 15 seconds and the upper phase was applied to a Biorad AG1-X8 anion exchange resin (100-200 mesh). The resin was washed with water and 0.9 ml of the upper phase was loaded onto the column. The column was washed with 10 mls of 5 mM myo-inositol and 10 ml of 5 mM Na-borate/60 mM Na-formate. The inositol trisphosphates were eluted into scintillation vials containing 10 ml of scintillation cocktail with 2 ml of 0.1 M formic acid/1 M ammonium formate. The columns were regenerated by washing with 10 ml of 0.1 M formic acid/3M ammonium formate and rinsed twice with dd H2 O and stored at room temperature in water.\nCandidate compound identified in the assays of Examples 9a-9c were then evaluated for inositol phosphate accumulation, following the protocol of Example 5 ([…] expressing human mutated 5HT2A receptor, AP-3), modified as follows: tube A was prepared by mixing 16 μg DNA (e.g., pCMV vector; pCMV vector AP-1 cDNA, etc.) in 1.0 ml serum free DMEM (Irvine Scientific, Irvine, Calif.); tube B was prepared by mixing 60 μl lipofectamine (Gibco BRL) in 1.0 ml serum free DMEM. Tubes A and B were then admixed by inversions (several times), followed by incubation at room temperature for 30 min. The admixture is referred to as the \"transfection mixture\". Plated 293 cells were washed with 10 ml Serum Free DMEM, followed by addition of 11 ml Serum Free DMEM. 2.0 ml of the transfection mixture was then added to the cells, followed by incubation for 5 hrs at 37° C./5% CO2. On day 3, cells were trypsinized and counted, followed by plating of 1×10^6 cells/well (12-well plates). Cells were permitted to adhere to the wells for 8 hrs, followed by one wash with 1×PBS. Thereafter, 0.5 μCi ^3 H-inositol in 1 ml inositol-free DMEM was added per well.\nOn day 4, the cells were washed with 1.5 ml PBS and then 0.9 ml of assay medium was added containing inositol-free/serum free media, 10 μM pargyline, 10 mM lithium chloride, for 5 min in 37° C./5% CO2 followed by 100 μl addition of candidate compound diluted in the same material. The cells were then incubated for 120 minutes at 37° C. […]"}, "[2]": {"system": "5HT2 receptors", "experiment": "DOI locomotor activity test in rats (DOI inhibition study), intraperitoneal test compound", "assay_type": "in vivo, rat (male Sprague-Dawley)", "settings": "i.p. 30 min before DOI (0.3 mg/kg s.c.)", "description": "(§1) FIG. 3 provides a graphic summary of dose-response results from in vivo analysis of compound 116082 in a 1-(2,5-dimethoxy-4-iodophenyl)-2-aminopropane (\"DOI\") inhibition study (fine movement; ambulation; and animal rearing outcome measures). 116082 was administered 30 min prior to DOI. Animals were placed in locomotor activity cages 10 min after DOI administration and activity was measured for 10 min. Results are presented as total activity counts over the 10 min of exposure to the locomotor activity apparatus.\nas §1, with “FIG. 4” for “FIG. 3”, “compound 116081” for “compound 116082”, “a DOI” for “a 1-(2,5-dimethoxy-4-iodophenyl)-2-aminopropane (\"DOI\")”, “measures). 116081” for “measures). 116082”\nAssessment of 5-HT2 receptor antagonism in vivo was made by using the DOI locomotor activity test in rats as described by Krebs-Thomson (Psychopharmacology, 140:69-74, 1998).\nMotor function was assessed by using automated locomotor activity cages. The rats were placed in a standard rodent cage surrounded by photocell beams, which allow for automated recording of motor activity. […]"}, "[3]": {"experiment": "Bar catalepsy test in rats (extrapyramidal side effect analysis)", "assay_type": "in vivo, rat (male Sprague-Dawley)", "settings": "same dosing parameters and protocol; n=10 per dose; data not shown"}, "[4]": {"system": "human 5HT2A receptor compared with human 5HT2C receptor", "experiment": "Selectivity for 5HT2A over 5HT2C receptor (as measured by IC50 values)", "assay_type": "binding"}},
  "data": [
    {"smiles": "Cn1cc(Br)c(-c2cccc(NC(=O)Nc3ccc(Cl)cc3)c2)n1", "note": "[Compound 116081, N-[3-(4-bromo-1-methylpyrazol-3-yl)phenyl][(4-chlorophenyl)amino]carboxamide]", "values": [
      {"measurement": "IP3 % of Control", "setting": "[1]; 10 μM test compound, triplicate, control without test compound", "result": 10, "unit": "%"},
      {"measurement": "profile in in vitro functional assays", "setting": "[1]; in vitro functional assays", "result": "selective 5HT2A inverse agonist properties"},
      {"measurement": "reversal of DOI-induced motor dysfunction", "setting": "[2]", "result": "beneficially reverses DOI-induced motor dysfunction"},
      {"measurement": "cataleptic response", "setting": "[3]", "result": "did not produce a cataleptic response"},
      {"measurement": "selectivity preference for the 5HT2A receptor compared with the 5HT2C receptor", "setting": "[4]", "result": 100, "unit": "fold"}
    ]}
  ]
}
